# Assay results as given in ChEMBL document CHEMBL3751695, “Cationic lipid-conjugated hydrocortisone as selective antitumor agent” (Eur J Med Chem, 2016).
# pIC50: −log10 of the molar value. The source made the active and inactive calls. The rule behind the calls is not given here.
# What was measured:
# [1] = Cytotoxicity against human SKOV3 cells after 72 hrs by MTT assay; type: functional, cell-based; conditions: SK-OV-3, 72 h
# A549 [2] = assay: Induction of apoptosis in human A549 cells assessed as necrotic cells at 20 uM after 24 hrs by annexin-V-FITC/propidium iodide staining based flow cytometry (reference value: 3.23 %); type: functional
# [3] = Induction of apoptosis in mouse NIH/3T3 cells assessed as late apoptotic cells at 20 uM after 24 hrs by annexin-V-FITC/propidium iodide staining based flow cytometry (reference value: 0.28 %); type: cell-based; conditions: nih3t3, 24 h
# [4] = Induction of apoptosis in mouse NIH/3T3 cells assessed as viable cells at 20 uM after 24 hrs by annexin-V-FITC/propidium iodide staining based flow cytometry (reference value: 99.06 %); type: cell-based, NIH3T3; conditions: read-out: Activity
# [5] = Induction of apoptosis in mouse RAW264.7 cells assessed as viable cells at 20 uM after 24 hrs by annexin-V-FITC/propidium iodide staining based flow cytometry (reference value: 89.11 %); type: cell-based; conditions: read-out: Activity
# A549 [6] = assay: Induction of apoptosis in human A549 cells assessed as late apoptotic cells at 20 uM after 24 hrs by annexin-V-FITC/propidium iodide staining based flow cytometry (reference value: 7.40 %); type: functional
# MDA-MB-231 [7] = assay: Induction of apoptosis in human MDA-MB-231 cells assessed as early apoptotic cells at 20 uM after 24 hrs by annexin-V-FITC/propidium iodide staining based flow cytometry (reference value: 0.58 %); type: functional
# RAW264.7 [8] = assay: Cytotoxicity against mouse RAW264.7 cells after 72 hrs by MTT assay; type: cell-based; conditions: RAW264.7, 72 h
# [9] = Toxicity in C57BL/J mouse xenografted with mouse B16F10 cells assessed as mortality rate at 6.11 mg/kg, ip measured 45 days after tumor inoculation; type: organism-based, B16-F10; conditions: in vivo, read-out: Activity
# MDA-MB-231 [10] = assay: Induction of apoptosis in human MDA-MB-231 cells assessed as late apoptotic cells at 20 uM after 24 hrs by annexin-V-FITC/propidium iodide staining based flow cytometry (reference value: 3.25 %); type: functional
# B16-F10 [11] = assay: Induction of apoptosis in mouse B16F10 cells assessed as increase in cleaved caspase 3 level at 20 uM after 36 hrs by western blot analysis; type: functional, cell-based
# [12] = Induction of apoptosis in mouse NIH/3T3 cells assessed as necrotic cells at 20 uM after 24 hrs by annexin-V-FITC/propidium iodide staining based flow cytometry (reference value: 0.24 %); type: cell-based; conditions: nih3t3, 24 h
# MDA-MB-231 [13] = assay: Induction of apoptosis in human MDA-MB-231 cells assessed as necrotic cells at 20 uM after 24 hrs by annexin-V-FITC/propidium iodide staining based flow cytometry (reference value: 5.40 %); type: functional
# [14] = Induction of apoptosis in mouse NIH/3T3 cells assessed as early apoptotic cells at 20 uM after 24 hrs by annexin-V-FITC/propidium iodide staining based flow cytometry (reference value: 0.43 %); type: cell-based; conditions: nih3t3, 24 h
# [15] = Cell cycle arrest in mouse B16F10 cells assessed as accumulation at G2/M phase at 20 uM after 24 hrs by propidium iodide staining based flow cytometry (reference value: 15.2 %); type: functional; conditions: B16-F10
# B16-F10 [16] = assay: Antitumor activity against mouse B16F10 cells xenografted in C57BL/J mouse assessed as inhibition of tumor growth at 6.11 mg/kg, ip; type: functional, organism-based
# [17] = Cytotoxicity against mouse NIH/3T3 cells after 72 hrs by MTT assay; type: cell-based; conditions: NIH3T3, 72 h
# MDA-MB-231 [18] = assay: Induction of apoptosis in human MDA-MB-231 cells assessed as viable cells at 20 uM after 24 hrs by annexin-V-FITC/propidium iodide staining based flow cytometry (reference value: 90.77 %); type: functional; conditions: MDA-MB-231, 24 h, read-out: Activity
# A549 [19] = assay: Cytotoxicity against human A549 cells after 72 hrs by MTT assay; type: functional, cell-based; conditions: A549, 72 h
# B16-F10 [20] = assay: Induction of apoptosis in mouse B16F10 cells assessed as early apoptotic cells at 20 uM after 24 hrs by annexin-V-FITC/propidium iodide staining based flow cytometry (reference value: 0.46 %); type: functional
# [21] = Cell cycle arrest in mouse B16F10 cells assessed as accumulation at G1 phase at 20 uM after 24 hrs by propidium iodide staining based flow cytometry (reference value: 38.8 %); type: functional; conditions: B16-F10
# [22] = Antitumor activity in mouse B16F10 cells xenografted in C57BL/J mouse assessed as increase in ratio of Bax/Bcl2 in tumor lysates at 6.11 mg/kg, ip by western blot analysis (reference value: 0.4); type: functional, Neoplasm, B16-F10
# B16-F10 [23] = assay: Induction of apoptosis in mouse B16F10 cells assessed as necrotic cells at 20 uM after 24 hrs by annexin-V-FITC/propidium iodide staining based flow cytometry (reference value: 1.41 %); type: functional
# [24] = Cell cycle arrest in mouse B16F10 cells assessed as accumulation at subG0/G1 phase at 20 uM after 24 hrs by propidium iodide staining based flow cytometry (reference value: 40.7 %); type: functional; conditions: B16-F10
# B16-F10 [25] = assay: Induction of apoptosis in mouse B16F10 cells assessed as increase in p53 expression at 20 uM after 36 hrs by […]; type: functional, cell-based
# Gallus gallus = species on record: Gallus gallus; assay: Antiangiogenic activity in chicken embryo assessed as inhibition of neovascularization at 40 uM after 4 hrs by microscopic analysis; type: functional, tissue-based
# [26] = Cell cycle arrest in mouse B16F10 cells assessed as accumulation at S phase at 20 uM after 24 hrs by propidium iodide staining based flow cytometry (reference value: 5.4 %); type: functional; conditions: B16-F10
# B16-F10 [27] = assay: Induction of apoptosis in mouse B16F10 cells assessed as increased Bax expression at 20 uM after 36 hrs by western blot analysis; type: functional, cell-based
# [28] = Cytotoxicity against mouse B16F10 cells after 72 hrs by MTT assay; type: functional, cell-based; conditions: B16-F10, 72 h
# A549 [29] = assay: Induction of apoptosis in human A549 cells assessed as early apoptotic cells at 20 uM after 24 hrs by annexin-V-FITC/propidium iodide staining based flow cytometry (reference value: 1.41 %); type: functional
# HeLa = assay: Cytotoxicity against human HeLa cells after 72 hrs by MTT assay; type: functional, cell-based
# B16-F10 [30] = assay: Induction of apoptosis in mouse B16F10 cells assessed as late apoptotic cells at 20 uM after 24 hrs by annexin-V-FITC/propidium iodide staining based flow cytometry (reference value: 4.47 %); type: functional
# MCF7 = assay: Cytotoxicity against human MCF7 cells after 72 hrs by MTT assay; type: functional, cell-based; conditions: MCF7, 72 h
# RAW264.7 [31] = assay: Induction of apoptosis in mouse RAW264.7 cells assessed as necrotic cells at 20 uM after 24 hrs by annexin-V-FITC/propidium iodide staining based flow cytometry (reference value: 1.81%); type: cell-based; conditions: raw264.7, 24 h
# A549 [32] = assay: Induction of apoptosis in human A549 cells assessed as viable cells at 20 uM after 24 hrs by annexin-V-FITC/propidium iodide staining based flow cytometry (reference value: 87.96 %); type: functional; conditions: A549, 24 h, read-out: Activity
# B16-F10 [33] = assay: Induction of apoptosis in mouse B16F10 cells assessed as increase in ratio of Bax/Bcl2 level at 20 uM after 36 hrs by western blot analysis (reference value: 0.2); type: functional
# RAW264.7 [34] = assay: Induction of apoptosis in mouse RAW264.7 cells assessed as late apoptotic cells at 20 uM after 24 hrs by annexin-V-FITC/propidium iodide staining based flow cytometry (reference value: 5.64 %); type: cell-based; conditions: raw264.7, 24 h
# RAW264.7 [35] = assay: Induction of apoptosis in mouse RAW264.7 cells assessed as early apoptotic cells at 20 uM after 24 hrs by annexin-V-FITC/propidium iodide staining based flow cytometry (reference value: 3.44 %); type: cell-based; conditions: raw264.7, 24 h
# B16-F10 [36] = assay: Induction of apoptosis in mouse B16F10 cells assessed as increase in cytochrome C level at 20 uM after 36 hrs by western blot analysis; type: functional, cell-based
# B16-F10 [37] = assay: Induction of apoptosis in mouse B16F10 cells assessed as viable cells at 20 uM after 24 hrs by annexin-V-FITC/propidium iodide staining based flow cytometry (reference value: 93.66 %); type: functional; conditions: B16-F10, 24 h, read-out: Activity
# [38] = Cytotoxicity against mouse B16F10 cells at 10 uM after 72 hrs by MTT assay in presence of 10 uM HYD; type: functional, B16-F10
# [39] = Cytotoxicity against mouse B16F10 cells at 10 and 20 uM after 72 hrs by MTT assay; type: functional, B16-F10
# [40] = Cytotoxicity against mouse B16F10 cells at 20 uM after 72 hrs by MTT assay in presence of 20 uM HYD; type: functional, B16-F10
Structure (SMILES),Activity (A549 [2]),Activity [3],"viability at 24 h, 20 µM [4]","viability at 24 h, 20 µM [5]",Activity (A549 [6]),pIC50 (RAW264.7 [8]),Activity [12],Activity [14],pIC50 [17],pIC50 (A549 [19]),Activity (B16-F10 [20]),Activity (B16-F10 [23]),pIC50 [28],Activity (A549 [29]),Activity (B16-F10 [30]),pIC50 (MCF7),Activity (RAW264.7 [31]),viability at 20 µM (A549 [32]),Activity (RAW264.7 [34]),Activity (RAW264.7 [35]),also measured
C[C@]12CCC(=O)C=C1CC[C@@H]1[C@@H]2[C@@H](O)C[C@@]2(C)[C@H]1CC[C@]2(O)C(=O)CO [HYDROCORTISONE],2.97%,0.16%,99.5%,93.8%,7.09%,< 4.70,0.1%,0.01%,< 4.70,< 4.70,0.77%,1.04%,< 4.70,1.55%,9.14%,< 4.70,0.69%,88.4%,3.13%,2.39%,pIC50 [1]: < 4.70; Activity (MDA-MB-231 [7]): 2.05%; mortality at 1080 h [9]: 70%; Activity (MDA-MB-231 [10]): 8.1%; Activity (B16-F10 [11]): Active; Activity (MDA-MB-231 [13]): 2.46%; Activity [15]: 17.9%; inhibition (B16-F10 [16]): Active; viability at 20 µM (MDA-MB-231 [18]): 87.4%; Activity [21]: 20.9%; Ratio [22]: 0.8; Activity [24]: 56.6%; Activity (B16-F10 [25]): Active; inhibition (Gallus gallus): inactive; Activity [26]: 4.6%; Activity (B16-F10 [27]): Active; pIC50 (HeLa): < 4.70; Ratio (B16-F10 [33]): 0.3; Activity (B16-F10 [36]): Active; viability at 20 µM (B16-F10 [37]): 89%
CCCCCCCCCCCCCC[N+](C)(CCCCCCCCCCCCCC)CCNC(=O)[C@@]1(O)CC[C@H]2[C@@H]3CCC4=CC(=O)CC[C@]4(C)[C@H]3[C@@H](O)C[C@@]21C,,,,,,5.06,,,5.31,5.48,,,4.79,,,4.87,,,,,
CCCCCCCCCCCCCCCC[N+](C)(CCCCCCCCCCCCCCCC)CCNC(=O)OC(C)(C)C.[Cl-],1.65%,0.96%,94.9%,91.3%,13.95%,,3.23%,0.94%,,,1.75%,4.16%,,2.7%,12.56%,,0.86%,81.7%,4.18%,3.66%,Activity [38]: 20%; Activity [39]: 20%; Activity [40]: 20%; viability at 20 µM (B16-F10 [37]): 81.5%
CCCCCCCCCCCC[N+](C)(CCCCCCCCCCCC)CCNC(=O)[C@@]1(O)CC[C@H]2[C@@H]3CCC4=CC(=O)CC[C@]4(C)[C@H]3[C@@H](O)C[C@@]21C,,,,,,5.40,,,5.47,5.47,,,5.47,,,5.34,,,,,
CCCCCCCCCC[N+](C)(CCCCCCCCCC)CCNC(=O)[C@@]1(O)CC[C@H]2[C@@H]3CCC4=CC(=O)CC[C@]4(C)[C@H]3[C@@H](O)C[C@@]21C,,,,,,5.21,,,5.42,4.90,,,5.33,,,5.43,,,,,
CCCCCCCC[N+](C)(CCCCCCCC)CCNC(=O)[C@@]1(O)CC[C@H]2[C@@H]3CCC4=CC(=O)CC[C@]4(C)[C@H]3[C@@H](O)C[C@@]21C,,,,,,4.90,,,5.13,4.75,,,5.35,,,5.17,,,,,
